Test results as given in US11566047B2, “Peptide or pharmaceutically acceptable salt thereof, or prodrug thereof” (TOKYO UNIVERSITY OF PHARMACY & LIFE SCIENCES, priority 2016, dated 2023).
Square brackets hold non-standard residues; d marks the D form. Ends that are not written are not given here. Peptide text beside a SMILES is read from it. * marks the point of attachment. Propanoyl(3,3-Ph2) = O=C(CC(c1ccccc1)c1ccccc1)*; 2Nal = N[C@@H](Cc1ccc2ccccc2c1)C(=O)O; Chg = N[C@H](C(=O)O)C1CCCCC1; R111 = not defined here

Columns and labels:
[1] = test system: calf muscles of mdx mice and C57BL/6 mice; assay: Influence on calf muscles of mdx mice and C57BL/6 mice (cross-sectional areas of muscle fibers); format: in vivo
Procedure: Evaluation was performed by the following method in order to check the muscle mass increasing effect in vivo of nPDM-55/E31R prepared in Synthesis Example 36.
nPDM-55/E31R was dissolved in saline to become 0.75 mM. 40 μL of nPDM-55/E31R was intramuscularly administered into the calf muscles of both legs of anesthetized mdx mice and C57BL/6 mice aged 5 weeks (all mice were males, purchased from CLEA Japan, Inc.) (40 μL of saline was intramuscularly administered into the calf muscles of both legs of control mice). After 2 weeks, the same amount of nPDM-55/E31R was administered to the same site again. After further 4 weeks, the mice were subjected to necropsy, the calf muscles were excised from the both legs and transverse frozen sections (6 μm) were formed using cryostat. Regarding three sections stained with Hematoxylin-Eosin and randomly selected, cross-sectional areas of muscle fibers (200 fibers) were analyzed by a fluorescence microscope BZX700 (KEYENCE CORPORATION).

myostatin = molecular target: T1, myostatin (Homo sapiens, UniProt O14793); assay: cell-based; conditions: for remaining activity at 0.3 µM: HEK293, read-out: luciferase activity (relative; myostatin without test sample = 100%)
T1 sequence (O14793 267-375): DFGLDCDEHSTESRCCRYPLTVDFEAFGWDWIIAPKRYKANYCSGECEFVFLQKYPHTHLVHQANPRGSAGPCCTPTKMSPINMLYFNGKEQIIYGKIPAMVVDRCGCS
Procedure: Human embryo kidney cell HEK293 cells were cultured in a 5% (v/v) CO2 incubator set to 37° C. using DMEM (NACALAI TESQUE, INC.) including a 10% (v/v) fetal bovine serum (FBS) added with a 1% (v/v) non-essential amino acid (Wako Pure Chemical Corporation).
(2) In Vitro Reporter Assay
HEK293 cells were seeded on a D-Lys-corted 96-well transparent plate (Thermo Fisher Scientific Inc.) in an amount of 2.0×10^4 cells (100 μL DMEM+10% (v/v) FBS) per well and were cultured for 24 hours.
The cells were cultured at 37° C. for 24 hours, and after the cell culture solution was replaced with serum-free DMEM, the cells were cultured for 8 hours. Incidentally, pGL4.48 [luc2P/SBE/Hygro] includes firefly luciferase reporter gene luc2P under Smad binding region (SBE) control, and when a signaling pathway by the myostatin is activated, intracellular Smad forms a complex, and the complex is bonded to SBE to promote transcription of luc2P.
The peptide as a test sample was suspended as a stock solution using DMSO to become 10 mM and stored at −30° C. Before 1 hour from addition to the culture medium, the peptide and a myostatin (Merck Millipore Corp.) were suspended with serum-free DMEM and left to stand still at room temperature (25° C.) for 20 minutes. Subsequently, a peptide with an arbitrary final concentration (0.3 to […]) and 8 ng/mL of myostatin were added to the culture medium, and then culturing was performed for 4 hours. After culturing for 4 hours, the culture solution was removed by an aspirator and the cells were washed with 1×PBS. Thereafter, Passive Lysis buffer (Promega Corporation) was added in an amount of 50 μL per well to dissolve the cells. The dissolving solution was subjected to centrifugal separation at 4500 rpm for 6 minutes under the condition of 4° C. After 20 μL of supernatant subjected to centrifugal separation was transferred to a white 96-well plate (Costar), 50 μL of Luciferase Assay Reagent (Promega Corporation) was then added, emission was detected by Luminoskan Ascent (Thermo Fisher Scientific Inc.), and a firefly luciferase activity was measured. Further, after 50 μL of Stop & Glo Buffer (Promega Corporation) was added, emission was detected by Luminoskan Ascent, and a Renilla luciferase activity was measured to be regarded as an internal control.

mdx mice = assay: Influence on serum creatine kinase level of mdx mice; format: in vivo; conditions: mdx male mice; 40 μL of 0.75 mM intramuscular into calf muscles of both legs on day 0 and day 14
Procedure: Evaluation was performed by the following method in order to check the effect of nPDM-55/E31R prepared in Synthesis Example 36 to a serum creatine kinase (CK) value in mdx mice. Incidentally, 3d prepared in Synthesis Example 75 was used as Comparative Example.
nPDM-55/E31R and 3d were dissolved in saline to become 0.75 mM. 40 μL of nPDM-55/E31R was intramuscularly administered into the calf muscles of both legs of anesthetized mdx mice aged 5 weeks (all mice were males, purchased from CLEA Japan, Inc.). After 2 weeks, the same amount of nPDM-55/E31R was administered to the same site again. Serum samples were collected immediately before administration of nPDM-55/E31R and 3d (day 0, day 14) and further also collected after 4 weeks (day 42). […] From those results, it was shown that nPDM-55/E31R has an effect of continually maintaining the CK level in blood to be low as compared to 3d.

## CC[C@H](C)[C@H](NC(=O)[C@H](CCC(N)=O)NC(=O)[C@@H](NC(=O)[C@H](CCCCN)NC(=O)[C@@H](NC(=O)[C@H](Cc1c[nH]c2ccccc12)NC(=O)[C@H](CCCNC(=N)N)NC(=O)[C@@H](NC(=O)[C@H](Cc1ccc(O)cc1)NC(=O)[C@@H](N)Cc1c[nH]c2ccccc12)[C@@H](C)CC)[C@@H](C)CC)[C@@H](C)CC)C(=O)N[C@@H](Cc1c[nH]c2ccccc12)C(=O)N[C@@H](CO)C(=O)N[C@@H](CCCCN)C(=O)N[C@@H](CC(C)C)C(=O)N[C@@H](CCCNC(=N)N)C(=O)N[C@@H](CC(C)C)C(N)=O [nPDM-55/E31R, WYIRWIKIQIWSKLRL-NH2] (H-WYIRWIKIQIWSKLRL-NH2)
[1]; mdx and C57BL/6 male mice, 40 μL of 0.75 mM intramuscular into both legs, again after 2 weeks, after further 4 weeks, vs saline mice
  cross-sectional areas of muscle fibers of calf muscles: increased
[1]; mdx and C57BL/6 mice, Hematoxylin-Eosin stained sections
  nature of the obtained muscular hypertrophy (analysis images): not inflammatory
myostatin
  remaining activity at 0.3 µM: ≤ 60%
Mdx mice
  serum creatine kinase (CK) level on day 14 versus day 0: clearly lower value
  serum creatine kinase (CK) level on day 42: clearly lower value

## CC[C@H](C)[C@H](NC(=O)[C@H](CCC(N)=O)NC(=O)[C@@H](NC(=O)[C@H](CCCCN)NC(=O)[C@@H](NC(=O)[C@H](Cc1c[nH]c2ccccc12)NC(=O)[C@H](CCCNC(=N)N)NC(=O)[C@@H](NC(=O)[C@H](Cc1ccc(O)cc1)NC(=O)[C@@H](N)Cc1c[nH]c2ccccc12)[C@@H](C)CC)[C@@H](C)CC)[C@@H](C)CC)C(=O)N[C@@H](Cc1c[nH]c2ccccc12)C(=O)N[C@@H](CO)C(=O)N[C@@H](CCCCN)C(=O)N[C@H](C(=O)N[C@@H](CCCNC(=N)N)C(=O)N[C@@H](CC(C)C)C(N)=O)C1CCCCC1 [nPDM-65, WYIRWIKIQIWSK-Chg-RL-NH2] (H-WYIRWIKIQIWSK[Chg]RL-NH2)
myostatin
  remaining activity at 0.3 µM: ≤ 60%

## CC[C@H](C)[C@H](NC(=O)[C@H](CCC(N)=O)NC(=O)[C@@H](NC(=O)[C@H](CCCCN)NC(=O)[C@@H](NC(=O)[C@H](Cc1c[nH]c2ccccc12)NC(=O)[C@H](CCCNC(=N)N)NC(=O)[C@@H](NC(=O)[C@H](Cc1ccc(O)cc1)NC(=O)[C@@H](N)Cc1c[nH]c2ccccc12)[C@@H](C)CC)[C@@H](C)CC)C1CCCCC1)C(=O)N[C@@H](Cc1c[nH]c2ccccc12)C(=O)N[C@@H](CO)C(=O)N[C@@H](CCCCN)C(=O)N[C@H](C(=O)N[C@@H](CCCNC(=N)N)C(=O)N[C@@H](CC(C)C)C(N)=O)C1CCCCC1 [nPDM-66, WYIRWIK-Chg-QIWSK-Chg-RL-NH2] (H-WYIRWIK[Chg]QIWSK[Chg]RL-NH2)
myostatin
  remaining activity at 0.3 µM: ≤ 60%

## CC[C@H](C)[C@H](NC(=O)[C@H](CCC(N)=O)NC(=O)[C@@H](NC(=O)[C@H](CCCCN)NC(=O)[C@@H](NC(=O)[C@H](Cc1ccc2ccccc2c1)NC(=O)[C@H](CCCNC(=N)N)NC(=O)[C@@H](NC(=O)[C@H](Cc1ccc(O)cc1)NC(=O)[C@@H](N)Cc1ccc(O)cc1)[C@@H](C)CC)[C@@H](C)CC)[C@@H](C)CC)C(=O)N[C@@H](Cc1c[nH]c2ccccc12)C(=O)N[C@@H](CO)C(=O)N[C@@H](CCCCN)C(=O)N[C@@H](CC(C)C)C(=O)N[C@@H](CCCNC(=N)N)C(=O)N[C@@H](CC(C)C)C(N)=O [nPDM-69, YYIR-Naa-IKIQIWSKLRL-NH2] (H-YYIR[2Nal]IKIQIWSKLRL-NH2)
myostatin
  remaining activity at 0.3 µM: ≤ 60%

## CC[C@H](C)[C@H](NC(=O)[C@H](CCC(N)=O)NC(=O)[C@@H](NC(=O)[C@H](CCCNC(=N)N)NC(=O)[C@@H](NC(=O)[C@@H](Cc1c[nH]c2ccccc12)NC(=O)[C@H](CCCNC(=N)N)NC(=O)[C@@H](NC(=O)[C@H](Cc1ccc(O)cc1)NC(=O)[C@@H](N)Cc1c[nH]c2ccccc12)[C@@H](C)CC)[C@@H](C)CC)C1CCCCC1)C(=O)N[C@@H](Cc1c[nH]c2ccccc12)C(=O)N[C@@H](CO)C(=O)N[C@@H](CCCNC(=N)N)C(=O)N[C@H](C(=O)N1CCC[C@H]1C(=O)N[C@@H](CC(C)C)C(N)=O)C1CCCCC1 [nPDM-80, WYIRwIR-Chg-QIWSR-Chg-PL-NH2] (H-WYIR[dW]IR[Chg]QIWSR[Chg]PL-NH2)
myostatin
  remaining activity at 0.3 µM: ≤ 60%

## CC[C@H](C)[C@H](NC(=O)[C@H](CCC(N)=O)NC(=O)[C@@H](NC(=O)[C@H](CCCNC(=N)N)NC(=O)[C@@H](NC(=O)[C@@H](Cc1c[nH]c2ccccc12)NC(=O)[C@H](CCCNC(=N)N)NC(=O)[C@@H](NC(=O)[C@H](Cc1ccc(O)cc1)NC(=O)[C@@H](N)Cc1c[nH]c2ccccc12)[C@@H](C)CC)[C@@H](C)CC)C1CCCCC1)C(=O)N[C@@H](Cc1c[nH]c2ccccc12)C(=O)N[C@H](CO)C(=O)N[C@@H](CCCNC(=N)N)C(=O)N[C@H](C(=O)N1CCC[C@H]1C(=O)N[C@@H](CC(C)C)C(N)=O)C1CCCCC1 [nPDM-82, WYIRwIR-Chg-QIWsR-Chg-PL-NH2] (H-WYIR[dW]IR[Chg]QIW[dS]R[Chg]PL-NH2)
myostatin
  remaining activity at 0.3 µM: ≤ 60%

## CC[C@H](C)[C@H](NC(=O)[C@H](Cc1ccc(O)cc1)NC(=O)CC(c1ccccc1)c1ccccc1)C(=O)N[C@@H](CCCNC(=N)N)C(=O)N[C@@H](Cc1c[nH]c2ccccc12)C(=O)N[C@H](C(=O)N[C@@H](CCCNC(=N)N)C(=O)N[C@H](C(=O)N[C@@H](CCC(N)=O)C(=O)N[C@H](C(=O)N[C@@H](Cc1c[nH]c2ccccc12)C(=O)N[C@@H](CO)C(=O)N[C@@H](CCCNC(=N)N)C(=O)N[C@H](C(=O)N1CCC[C@H]1C(=O)N[C@@H](CC(C)C)C(N)=O)C1CCCCC1)[C@@H](C)CC)C1CCCCC1)[C@@H](C)CC [nPDM-85, R^114-YIRWIR-Chg-QIWSR-Chg-PL-NH2] ({Propanoyl(3,3-Ph2)}-YIRWIR[Chg]QIWSR[Chg]PL-NH2)
myostatin
  remaining activity at 0.3 µM: ≤ 60%

## CC[C@H](C)[C@H](NC(=O)[C@H](CCC(N)=O)NC(=O)[C@@H](NC(=O)[C@H](CCCCN)NC(=O)[C@@H](NC(=O)[C@@H](Cc1c[nH]c2ccccc12)NC(=O)[C@H](CCCNC(=N)N)NC(=O)[C@@H](NC(=O)[C@H](Cc1ccc(O)cc1)NC(=O)[C@@H](N)Cc1c[nH]c2ccccc12)[C@@H](C)CC)[C@@H](C)CC)C1CCCCC1)C(=O)N[C@@H](Cc1c[nH]c2ccccc12)C(=O)N[C@@H](CO)C(=O)N[C@@H](CCCCN)C(=O)N[C@H](C(=O)N[C@@H](CCCNC(=N)N)C(=O)N[C@@H](CC(C)C)C(N)=O)C1CCCCC1 [nPDM-86, WYIRwIK-Chg-QIWSK-Chg-RL-NH2] (H-WYIR[dW]IK[Chg]QIWSK[Chg]RL-NH2)
myostatin
  remaining activity at 0.3 µM: ≤ 60%
myostatin; comparison of IC50 values
  inhibitory activity relative to 3d: approximately two times higher inhibitory activity
myostatin; read-out: IC50 value, myostatin inhibitory activity, concentration range of 0.016 to 2 μM
  IC50: 131 nM

## R^111-WYIEWIKIQIISKLRL-NH2 (R111-WYIEWIKIQIISKLRL-NH2; reading uncertain; also: printed as R^111-WYIEWIKIQIISKLRL-NH2) [PDM-27]
myostatin; at a concentration of 1 μM or more, 8 ng/mL myostatin, HEK293
  myostatin inhibitory activity (concentration-dependent evaluation): significant myostatin inhibitory activity

## SRIEAIKIQILSKLRL-NH2 (listed as Mus musculus) [mMPS(28-43), reference compound]
myostatin; final concentration of 1 μM
  myostatin inhibitory activity: a high myostatin inhibitory activity was not recognized
myostatin; final concentration of 10 μM
  myostatin inhibitory activity: the myostatin inhibitory activity was not recognized

## WYIEAIKIQILSKLRL-NH2 [d-14, reference compound]
myostatin; final concentration of 1 μM
  myostatin inhibitory activity: a high myostatin inhibitory activity was not recognized
